From patent US20150259344A1, “IMIDAZOLE DERIVATIVE” (DAINIPPON SUMITOMO PHARMA CO., LTD., priority 2012, published 2015) come the findings set out here.

The structures appear in SMILES notation. Read-outs that look alike come from different tables or passages of the source.

The target of the experiment is T1, human α7 nAChR (Homo sapiens, UniProt P36544).
T1 construct: expressed in transfected cells
Put plainly: Evaluation of PAM activity with human α7 nACh receptor stably expressing cells (aequorin luminescence, FDSS7000). As to conditions: for activity at 10 µM: read-out: α7PAM (%) @10 μM; for activity at 1 µM: 1 μM test compound (values marked *, footnote of Table 25), read-out: α7PAM (%) @1 μM. The class given is cell-based. The protocol: Evaluation of PAM activity with human α7 nACh receptor stably expressing cells
(1) Human α7 nAChR stably expressing cells
Human α7 nAChR stably expressing cells were generated and cultured.
Thus, the cells were subcultured.
Seven days after subculturing, the cells were treated with TrypLE Express to collect them when they were about 80% confluent.
On the next day after seeding, Viviren (cat#E649X, Promega, Madison, Wis., USA) was added to the medium so that the final concentration could be 4 μM (15 μL/well). The plates were centrifuged and then placed in the dark for 4 hours at room temperature.
(2) Preparation of the Test Samples
Each of the test compounds was dissolved in DMSO to prepare each test sample at a concentration of 1000-fold the final concentration. To the solution was added Hanks/20 mM HEPES/0.2% BSA (cat#A3803, Sigma, St. Louis, Mo., USA), and the concentration was adjusted to 6-fold the final concentration.
(3) Evaluation of PAM Activity
FDSS7000 (Hamamatsu Photonics) was used to detect the luminescence signal evoked by α7 nAChR stimulation. The cells and a luminescent substrate were put on a plate, and the test sample was added thereto. […] The ratio of the RLU (Max-Min) of the test-compound-containing wells to that of the control wells was defined as PAM activity.

[1] abbreviates: 10 μM test compound, ACh at EC20, ratio of RLU (Max-Min) to control wells.
[2] abbreviates: ACh at EC20, ratio of RLU (Max-Min) to control wells.
[3] abbreviates: GH4-C1, 10 μM test compound, ratio of RLU (Max-Min) of test wells to control wells after ACh at EC20, GH4C1 cells expressing human α7 nAChR and aequorin.

T1 sequence (P36544 23-502): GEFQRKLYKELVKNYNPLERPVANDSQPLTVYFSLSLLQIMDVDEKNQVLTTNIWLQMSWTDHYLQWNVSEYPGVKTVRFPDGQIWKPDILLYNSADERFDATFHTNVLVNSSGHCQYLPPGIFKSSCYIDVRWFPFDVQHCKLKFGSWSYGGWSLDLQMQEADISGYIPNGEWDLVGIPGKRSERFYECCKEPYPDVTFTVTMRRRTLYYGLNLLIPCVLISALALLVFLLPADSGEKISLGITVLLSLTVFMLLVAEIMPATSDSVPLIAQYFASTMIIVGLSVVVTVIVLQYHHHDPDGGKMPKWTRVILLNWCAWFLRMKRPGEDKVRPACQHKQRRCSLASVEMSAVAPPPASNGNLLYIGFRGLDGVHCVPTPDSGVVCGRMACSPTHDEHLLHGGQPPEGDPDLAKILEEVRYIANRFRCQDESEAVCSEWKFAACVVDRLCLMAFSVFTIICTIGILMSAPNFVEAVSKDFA

On to `O=C(N[C@H]1CC[C@@H](n2cnc(-c3ccccc3)c2Cl)CC1)C1CCCCC1` [Example 168], for which the activity at 10 µM under setting [1] came out at 829%. For `O=C(N[C@H]1CC[C@@H](n2cnc(-c3ccccc3)c2Cl)CC1)C1CCC(F)(F)CC1` [Example 169], the activity at 10 µM under setting [1] stood at 454%. For `O=C(N[C@H]1CC[C@@H](n2cnc(-c3ccccc3)c2Cl)CC1)C1CCCC1` [Example 170], under setting [1], the activity at 10 µM turned out to be 530%. Regarding `O=C(N[C@H]1CC[C@@H](n2cnc(-c3ccccc3)c2Cl)CC1)C1CCC1` [Example 171], the activity at 10 µM under setting [1] was 551%. For `CC(C)(F)C(=O)N[C@H]1CC[C@@H](n2cnc(-c3ccccc3)c2Cl)CC1` [Example 172], under setting [1], the activity at 10 µM came out at 480%.

As for `O=C(N[C@H]1CC[C@@H](n2cnc(-c3ccccc3)c2Cl)CC1)C1(C(F)(F)F)CC1` [Example 174], the activity at 10 µM under setting [1] turned out to be 224%. As for `CC(C)(F)C(=O)N[C@H]1CC[C@@H](n2cnc(-c3cccc(F)c3)c2Cl)CC1` [Example 175], the activity at 10 µM under setting [1] was found to be 397%. With `O=C(N[C@H]1CC[C@@H](n2cnc(-c3cccc(F)c3)c2Cl)CC1)C1CCC1` [Example 176], the activity at 1 µM under setting [2] is 258%. Consider `O=C(N[C@H]1CC[C@@H](n2cnc(-c3cccc(F)c3)c2Cl)CC1)C1CCCC1` [Example 177], for which the activity at 1 µM under setting [2] stood at 389%. Turning to `COc1ccc(-c2ncn([C@H]3CC[C@@H](NC(=O)C(C)(C)F)CC3)c2Cl)cc1Cl` [Example 178], the activity at 10 µM under setting [1] came out at 775%. For the compound `COc1ccc(-c2ncn([C@H]3CC[C@@H](NC(=O)C4CCC4)CC3)c2Cl)cc1Cl` [Example 179], the activity at 10 µM under setting [1] came out at 269%. `COc1ccc(-c2ncn([C@H]3CC[C@@H](NC(=O)C4CCCC4)CC3)c2Cl)cc1Cl` [Example 180]: under setting [1], the activity at 10 µM is 375%.

For the compound `O=C(N[C@H]1CC[C@@H](n2cnc(-c3ccc(F)cc3)c2Cl)CC1)C1CCC1` [Example 181], the activity at 10 µM under setting [1] is 641%. Turning to `O=C(N[C@H]1CC[C@@H](n2cnc(-c3ccc(F)cc3)c2Cl)CC1)C1CCCC1` [Example 182], the activity at 1 µM under setting [2] came to 682%.

Take `O=C(N[C@H]1CC[C@@H](n2cnc(-c3ccc(F)cc3)c2Cl)CC1)c1ccc(F)cc1` [Example 184]: the activity at 1 µM under setting [2] worked out at 303%.

As for `CC(C)(F)C(=O)N[C@H]1CC[C@@H](n2cnc(-c3ccccc3F)c2Cl)CC1` [Example 185], under setting [1], the activity at 10 µM is 576%. Consider `COc1cc(-c2ncn([C@H]3CC[C@@H](NC(=O)C(C)(C)F)CC3)c2Cl)ccc1F` [Example 186], for which, under setting [1], the activity at 10 µM was found to be 254%. `O=C(N[C@H]1CC[C@@H](n2cnc(-c3ccccc3)c2Cl)CC1)C1CC(F)(F)C1` [Example 188]: under setting [1], the activity at 10 µM was found to be 581%. For the compound `COc1cc(-c2ncn([C@H]3CC[C@@H](NC(=O)C4CCC4)CC3)c2Cl)ccc1F` [Example 191], the activity at 1 µM under setting [2] turned out to be 364%.

With `COc1cc(-c2ncn([C@H]3CC[C@@H](NC(=O)C4CCC4)CC3)c2Cl)c(Cl)cc1F` [Example 192], under setting [2], the activity at 1 µM was 274%. As to `CC(C)(F)C(=O)N[C@H]1CC[C@@H](n2cnc(-c3cccc(C(F)(F)F)c3)c2Cl)CC1` [Example 193], the activity at 10 µM under setting [1] was found to be 187%. In the case of `O=C(N[C@H]1CC[C@@H](n2cnc(-c3cccc(C(F)(F)F)c3)c2Cl)CC1)C1CCC1` [Example 195], under setting [1], the activity at 10 µM is 142%.

As to `O=C(N[C@H]1CC[C@@H](n2cnc(-c3ccc(C(F)(F)F)cc3)c2Cl)CC1)C1CCC1` [Example 196], the activity at 10 µM under setting [1] stood at 498%.

As for `CC(C)(F)C(=O)N[C@H]1CC[C@@H](n2cnc(-c3ccccc3)c2C#N)CC1` [Example 197, N-[cis-4-(5-cyano-4-phenyl-1H-imidazol-1-yl)cyclohexyl]-2-fluoro-2-methylpropanamide], the activity at 10 µM under setting [1] was 637%. On to `N#Cc1c(-c2ccccc2)ncn1[C@H]1CC[C@@H](NC(=O)C2CCC2)CC1` [Example 198], for which the activity at 10 µM under setting [1] stood at 799%.

Turning to `CC(C)(C)C(=O)N[C@H]1CC[C@@H](n2cnc(-c3ccc(C(F)(F)F)cc3)c2C#N)CC1` [Example 199], under setting [2], the activity at 1 µM is 230%. Take `CC(C)(C)C(=O)N[C@H]1CC[C@@H](n2cnc(-c3cccc(C(F)(F)F)c3)c2C#N)CC1` [Example 200]: under setting [2], the activity at 1 µM turned out to be 180%. Take `CC(C)(F)C(=O)N[C@H]1CC[C@@H](n2cnc(-c3ccc(C(F)(F)F)cc3)c2C#N)CC1` [Example 201, N-(cis-4-{5-cyano-4-[4-(trifluoromethyl)phenyl]-1H-imidazol-1-yl}cyclohexyl)-2-fluoro-2-methylpropanamide]: under setting [1], the activity at 10 µM was found to be 224%. Turning to `CC(C)(F)C(=O)N[C@H]1CC[C@@H](n2cnc(-c3cccc(C(F)(F)F)c3)c2C#N)CC1` [Example 202], the activity at 10 µM under setting [1] was 263%.

With `N#Cc1c(-c2ccccc2)ncn1[C@H]1CC[C@@H](NC(=O)C2CC(F)(F)C2)CC1` [Example 203], the activity at 10 µM under setting [1] worked out at 641%. For the compound `O=C(N[C@H]1CC[C@H](n2cnc(-c3ccccc3)c2)CC1)C1CCCCC1` [Example 204], under setting [1], the activity at 10 µM came to 172%. In the case of `O=C(N[C@H]1CC[C@H](n2cnc(-c3ccccc3)c2)CC1)C1CCC(F)(F)CC1` [Example 205], the activity at 10 µM under setting [1] amounted to 110%.

As to `O=C(N[C@H]1CC[C@H](n2cnc(-c3ccccc3)c2Cl)CC1)C1CCCCC1` [Example 206], the activity at 10 µM under setting [1] is 102%. On the same count and under the same terms, as for `O=C(N[C@H]1CC[C@H](n2cnc(-c3ccccc3)c2Cl)CC1)C1CCC(F)(F)CC1` [Example 207], the figure is 115%.

In the case of `O=C(NC1CCCCC1)[C@H]1CC[C@H](n2cnc(-c3ccccc3)c2)CC1` [Example 231], the activity at 10 µM under setting [3] is 149%. `CC(C)(C)NC(=O)[C@H]1CC[C@H](n2cnc(-c3ccccc3)c2)CC1` [Example 232]: the activity at 10 µM under setting [3] is 113%. On to `O=C(NC1CCCCC1)[C@H]1CC[C@H](n2cnc(-c3ccccc3)c2Cl)CC1` [Example 233], for which the activity at 10 µM under setting [3] is 102%.

As for `CC(C)(C)NC(=O)[C@H]1CC[C@H](n2cnc(-c3ccccc3)c2Cl)CC1` [Example 234], under setting [3], the activity at 10 µM was determined as 130%. Consider `FC(F)(F)c1cc(N[C@H]2CC[C@@H](n3cnc(-c4ccccc4)c3)CC2)ncn1` [Example 235, N-[cis-4-(4-Phenyl-1H-imidazol-1-yl)cyclohexyl]-6-(trifluoromethyl)pyrimidin-4-amine], for which the activity at 10 µM under setting [3] came to 631%. As to `Fc1ccc(-c2ncn([C@H]3CC[C@@H](Nc4cc(C(F)(F)F)ncn4)CC3)c2Cl)cc1` [Example 237], the activity at 10 µM under setting [1] worked out at 405%. Still for that read-out and setting: as for `Cc1c(-c2ccc(F)cc2)ncn1[C@H]1CC[C@@H](Nc2cc(C(F)(F)F)ncn2)CC1` [Example 239], the figure is 207%; as for `O=C(NC1CCCCC1)N1CCCC(n2cnc(-c3ccc(F)cc3)c2)CC1` (centres unmarked) [Example 240], 280%. The same measure, in the same setting: the result for `O=C(NC1CCCCC1)N1CCCC(n2cnc(-c3ccc(F)cc3)c2Cl)CC1` (centres unmarked) [Example 241] reads 314%.

For the compound `O=C(C1CCC(F)(F)CC1)N1CCCC(n2cnc(-c3ccc(F)cc3)c2)CC1` (centres unmarked) [Example 242], the activity at 10 µM under setting [1] stood at 297%. Consider `O=C(C1CCC(F)(F)CC1)N1CCCC(n2cnc(-c3ccc(F)cc3)c2Cl)CC1` (centres unmarked) [Example 243], for which the activity at 10 µM under setting [1] came out at 290%. For the compound `O=C(NC1CCOCC1)N1CCC(n2cnc(-c3cccc(F)c3)c2)CC1` [Example 244], the activity at 10 µM under setting [1] worked out at 175%. For `O=C(NC1CCOCC1)N1CCC(n2cnc(-c3ccc(F)cc3)c2)CC1` [Example 245], under setting [1], the activity at 10 µM amounted to 197%.
